Experimental data taken from ChEMBL document CHEMBL3885881, “DrugMatrix”.

Species: Rattus norvegicus
Experiment: DrugMatrix - Regimen: Daily Repeat
Assay type: toxicity, organism-based, Sprague-Dawley
Set-up: regimen Daily Repeat, gender Male, age 6-8 weeks
Conditions: in vivo, po, route oral GAVAGE, vehicle 100 % WATER; for NUCLEATED RED BLOOD CELLS / PLATELET COUNT / ABSOLUTE BASOPHIL / ABSOLUTE EOSINOPHIL / ABSOLUTE LYMPHOCYTE / ABSOLUTE MONOCYTE / ABSOLUTE SEGMENTED NEUTROPHIL / BASOPHIL / EOSINOPHIL / ERYTHROCYTE COUNT / HEMATOCRIT / LEUKOCYTE COUNT / LYMPHOCYTE / MEAN CORPUSCULAR HEMOGLOBIN / MEAN CORPUSCULAR HEMOGLOBIN CONCENTRATION / MEAN CORPUSCULAR VOLUME / MONOCYTE / NEUTROPHIL: tissue Blood; for ALANINE AMINOTRANSFERASE / ALBUMIN / ALKALINE PHOSPHATASE / ASPARTATE AMINOTRANSFERASE / BLOOD UREA NITROGEN / CARBON DIOXIDE / CHLORIDE / CHOLESTEROL / CREATINE PHOSPHOKINASE / CREATININE / LIPASE / POTASSIUM / TOTAL BILIRUBIN / TOTAL PROTEIN: tissue Plasma
[1] = 44 mg/kg, 120 h, dose level Low, time 5 day
[2] = 600 mg/kg, 72 h, dose level M1, time 3 day
[3] = 600 mg/kg, 120 h, dose level M1, time 5 day
[4] = 1200 mg/kg, 72 h, dose level High, time 3 day

SMILES: NC(=O)c1ncn([C@@H]2O[C@H](CO)[C@@H](O)[C@H]2O)n1 [RIBAVIRIN]
- NUCLEATED RED BLOOD CELLS [1]: 0 /100WBC
- PLATELET COUNT [1]: 1248.67 x10E3/uL
- ALANINE AMINOTRANSFERASE [1]: 43 u/L
- ALBUMIN [1]: 4.37 G/DL
- ALKALINE PHOSPHATASE [1]: 347 u/L
- ASPARTATE AMINOTRANSFERASE [1]: 75.33 u/L
- BLOOD UREA NITROGEN [1]: 13.67 mg/dL
- CARBON DIOXIDE [1]: 26 mmol/L
- CHLORIDE [1]: 102 MEQ/L
- CHOLESTEROL [1]: 63 mg/dL
- CREATINE PHOSPHOKINASE [1]: 230.67 u/L
- CREATININE [1]: 0.16 mg/dL
- LIPASE [1]: 8 u/L
- POTASSIUM [1]: 6.69 MEQ/L
- TOTAL BILIRUBIN [1]: 0.2 mg/dL
- TOTAL PROTEIN [1]: 6 G/DL
- ABSOLUTE BASOPHIL [2]: 0 CELLS/uL
- ABSOLUTE EOSINOPHIL [2]: 216 CELLS/uL
- ABSOLUTE LYMPHOCYTE [2]: 9535 CELLS/uL
- ABSOLUTE MONOCYTE [2]: 0 CELLS/uL
- ABSOLUTE SEGMENTED NEUTROPHIL [2]: 1715.67 CELLS/uL
- BASOPHIL [2]: 0%
- EOSINOPHIL [2]: 2%
- ERYTHROCYTE COUNT [2]: 6.28 x10E6/uL
- HEMATOCRIT [2]: 39.7%
- LEUKOCYTE COUNT [2]: 11.47 x10E3/uL
- LYMPHOCYTE [2]: 82.67%
- MEAN CORPUSCULAR HEMOGLOBIN [2]: 23.53 pg
- MEAN CORPUSCULAR HEMOGLOBIN CONCENTRATION [2]: 37.3 G/DL
- MEAN CORPUSCULAR VOLUME [2]: 63.2 fL
- MONOCYTE [2]: 0%
- NEUTROPHIL [2]: 15.33%
- NUCLEATED RED BLOOD CELLS [2]: 0 /100WBC
- PLATELET COUNT [2]: 1269.33 x10E3/uL
- ALANINE AMINOTRANSFERASE [2]: 185 u/L
- ALBUMIN [2]: 3.7 G/DL
- ALKALINE PHOSPHATASE [2]: 293.33 u/L
- ASPARTATE AMINOTRANSFERASE [2]: 480 u/L
- BLOOD UREA NITROGEN [2]: 16.33 mg/dL
- CARBON DIOXIDE [2]: 16 mmol/L
- CHLORIDE [2]: 104.33 MEQ/L
- CHOLESTEROL [2]: 83 mg/dL
- CREATINE PHOSPHOKINASE [2]: 1211.67 u/L
- CREATININE [2]: 0.22 mg/dL
- LIPASE [2]: 35 u/L
- POTASSIUM [2]: 7.1 MEQ/L
- TOTAL BILIRUBIN [2]: 0.2 mg/dL
- TOTAL PROTEIN [2]: 5.33 G/DL
- ABSOLUTE BASOPHIL [3]: 0 CELLS/uL
- ABSOLUTE EOSINOPHIL [3]: 179.33 CELLS/uL
- ABSOLUTE LYMPHOCYTE [3]: 10736 CELLS/uL
- ABSOLUTE MONOCYTE [3]: 0 CELLS/uL
- ABSOLUTE SEGMENTED NEUTROPHIL [3]: 2451.33 CELLS/uL
- BASOPHIL [3]: 0%
- EOSINOPHIL [3]: 1.33%
- ERYTHROCYTE COUNT [3]: 6.48 x10E6/uL
- HEMATOCRIT [3]: 40.57%
- LEUKOCYTE COUNT [3]: 13.37 x10E3/uL
- LYMPHOCYTE [3]: 81.33%
- MEAN CORPUSCULAR HEMOGLOBIN [3]: 23.67 pg
- MEAN CORPUSCULAR HEMOGLOBIN CONCENTRATION [3]: 37.87 G/DL
- MEAN CORPUSCULAR VOLUME [3]: 62.53 fL
- MONOCYTE [3]: 0%
- NEUTROPHIL [3]: 17.33%
- NUCLEATED RED BLOOD CELLS [3]: 0.33 /100WBC
- PLATELET COUNT [3]: 1066.33 x10E3/uL
- ALANINE AMINOTRANSFERASE [3]: 34 u/L
- ALBUMIN [3]: 3.63 G/DL
- ALKALINE PHOSPHATASE [3]: 197 u/L
- ASPARTATE AMINOTRANSFERASE [3]: 117.33 u/L
- BLOOD UREA NITROGEN [3]: 15 mg/dL
- CARBON DIOXIDE [3]: 16 mmol/L
- CHLORIDE [3]: 107.67 MEQ/L
- CHOLESTEROL [3]: 65.67 mg/dL
- CREATINE PHOSPHOKINASE [3]: 1121 u/L
- CREATININE [3]: 0.19 mg/dL
- LIPASE [3]: 14.33 u/L
- POTASSIUM [3]: 7.12 MEQ/L
- TOTAL BILIRUBIN [3]: 0.13 mg/dL
- TOTAL PROTEIN [3]: 5.2 G/DL
- ABSOLUTE BASOPHIL [4]: 0 CELLS/uL
- ABSOLUTE EOSINOPHIL [4]: 0 CELLS/uL
- ABSOLUTE LYMPHOCYTE [4]: 6405 CELLS/uL
- ABSOLUTE MONOCYTE [4]: 112.67 CELLS/uL
- BASOPHIL [4]: 0%
- EOSINOPHIL [4]: 0%
- ERYTHROCYTE COUNT [4]: 6.37 x10E6/uL
- HEMATOCRIT [4]: 39.37%
- LEUKOCYTE COUNT [4]: 8 x10E3/uL
- LYMPHOCYTE [4]: 80%
- MEAN CORPUSCULAR HEMOGLOBIN [4]: 24.77 pg
- MEAN CORPUSCULAR HEMOGLOBIN CONCENTRATION [4]: 40.07 G/DL
- MEAN CORPUSCULAR VOLUME [4]: 61.7 fL
- MONOCYTE [4]: 1.33%
- NEUTROPHIL [4]: 18.67%
- NUCLEATED RED BLOOD CELLS [4]: 0 /100WBC
- PLATELET COUNT [4]: 1071 x10E3/uL
- ALANINE AMINOTRANSFERASE [4]: 55.67 u/L
- ALBUMIN [4]: 3.17 G/DL
- ALKALINE PHOSPHATASE [4]: 195.67 u/L
- ASPARTATE AMINOTRANSFERASE [4]: 225.67 u/L
- BLOOD UREA NITROGEN [4]: 13.33 mg/dL
- CARBON DIOXIDE [4]: 20 mmol/L
- CHLORIDE [4]: 113.33 MEQ/L
- CHOLESTEROL [4]: 88 mg/dL
- CREATINE PHOSPHOKINASE [4]: 1322.67 u/L
- CREATININE [4]: 0.12 mg/dL
- LIPASE [4]: 7.67 u/L
- POTASSIUM [4]: 7 MEQ/L
- TOTAL BILIRUBIN [4]: 0.2 mg/dL
- TOTAL PROTEIN [4]: 4.47 G/DL
